The series is described as follows: Particle size of the levetiracetam used. The settings on record: levetiracetam used in the examples. The series is classed as physicochemical. How it is done:
In order to avoid possible handling difficulties, the levetiracetam used preferably comprises particles having a particle size distribution such that d(0.1) is Not Less Than (NLT) about 0.6 μm, d(0.5) is from about 10 to about 30 μm, and d(0.9) is Not More Than (NMT) about 65 μm. In addition, the Bulk Density is NLT 0.2 g/cm^3, and the Tapped Density is NLT 0.35 g/cm^3. […] To minimize the impact of particle size on the levetiracetam release rate, a disintegrant was added intra- and extra-granularly. Although the resulting dissolution rate is somewhat slower than that of the commercial product, the product of present invention is found to be bio-equivalent to the marketed product in both fasting and food bio-equivalent studies.

In the case of `CC[C@@H](C(N)=O)N1CCCC1=O` [levetiracetam, (−)-(S)-(alpha)-ethyl-2-oxo-1-pyrrolidine acetamide], the Particle size entry is given as “about 50 μm”.

(Values after patent US20070172521A1, “Levetiracetam formulations and methods for their manufacture” (priority 2006, published 2007).)
